Test results published in patent publication US10800815B2, “Kv1.3 potassium channel antagonists” (cgtx-Peptide Development GmbH, priority 2014, dated 2020).
Entries after “also recorded” stand apart in the source; their conditions may differ. Like-named read-outs stand apart in the source and are kept apart here.

Experiments:
Kv1.1 = biological target: T1, Kv1.1 (Homo sapiens, UniProt Q09470); assay: Patch-clamp measurement of Kv1.1 channel inhibition (Example 1); assay type: cell-based; set-up: dose or concentration left out as unconfirmed
T1 construct: expressed in transfected cells; host or cells: Sf21 insect cells, baculovirus infection
Procedure: (§1) FIGS. 1A-1F Measurement of Kv1.3 (FIGS. 1B and 1E), Kv1.5 (FIGS. 1C and 1F) and Kv1.1 (FIGS. 1A and 1D) channel inhibition by patch-clamp.
(§2) Peptides were dissolved at 1 μg/μl in 20 mM NaPO4 buffer pH 8.2 (1 mg in 1 ml folding buffer) and dialysed against the same buffer 3×1 L, Float-a-Lyzer cut off 500 Da (Spectrapor) at room temperature.
(§3) HsTx 1 binding was tested at various concentrations of e.g. 100 pM, 1 nM, 10 nM, 50 nM, 100 nM, 500 nM, and 1 μM—depending on the tested channel. Representative measurements for Kv 1.1, Kv1.3 and Kv1.5 are depicted in FIGS. 1 a), 1 b), and 1 c) respectively.
(§4) Cgtx-544 binding was tested at various concentrations of e.g. 1 nM, 10 nM, 50 nM, 100 nM, 1 μM, and 5 μM—depending on the tested channel. Representative measurements for Kv1.1, Kv1.3 and Kv1.5 are depicted in FIGS. 1 d), 1e), and 1) f, respectively.

Kv1.3 = Kv1.3 (Homo sapiens, UniProt P22001); assay: Kv1.3 block with prolonged incubation times; assay type: cell-based
Kv1.5 = biological target: T2, Kv1.5 (Homo sapiens, UniProt P22460); assay: Patch-clamp measurement of Kv1.5 channel inhibition (Example 1); assay type: cell-based; settings: up to a concentration of 10 μM
T2 construct: expressed in transfected cells; host or cells: Sf21 insect cells, baculovirus infection
Procedure: as §1, §2, §3, §4

antibody formation = assay type: in vivo, rat
Procedure: FIG. 27 Analysis of mBSA specific antibodies. In the experimental groups H and I all animals have produced antibodies against the antigen mBSA during the immunization and AIA induction period.
The remaining swelling in treated animals was assumed to be due to antibody/antigen reactions. Therefore, immunized as well as naïve animals were tested for the presence of mBSA specific antibodies. Antibodies against mBSA could be detected in all immunized animals of groups H and I seven days after arthritis induction (FIG. 27).

[1] = biological target: T3, Kv1.3 channels expressed in Sf21 insect cells (Homo sapiens, UniProt P22001); assay: Stability ex vivo in human blood plasma, read out as IC50 on Kv1.3 (Example 3); assay type: in vitro ADME
T3 construct: expressed in transfected cells; host or cells: Sf21 insect cells, baculovirus infection
Procedure: The aim was to test the stability of the cgtx-544 peptide in blood plasma of mammals after different incubation times at room temperature (RT) and 37° C. Stability was defined as IC50 value of cgtx-544 after different incubation times at RT and 37° C. Blood plasma was prepared from fresh blood samples from healthy rats or humans. Heparin was added to fresh blood samples to prevent clogging. Plasma preparation was performed by centrifugation for 2 min at 2000×g at RT.
As the cgtx-544 peptide used in these experiments was incompletely folded, a higher IC50 than normal was determined.
To investigate the stability and activity in plasma the peptide was added to freshly prepared human and rat blood plasma at a final concentration of 2 μM. The samples were split into two aliquots and incubated at 37° C. and at room temperature (RT, 20° C.). For the electrophysiological analysis serial dilutions of the samples were prepared.

[2] = system: antigen induced arthritis (AIA); assay: Antigen induced arthritis (AIA) rat model, knee joint swelling; assay type: in vivo; settings: for effect on knee swelling, curative treatment: 1 mg/kg BW i.v. daily, start on day 0 or day 1, vs vehicle
in vivo = assay type: in vivo; settings: rat, i.v., 750 μg/kg BW; listed as cgtx-544
Procedure: FIG. 34 Decrease of cgtx-544(Sing) in the serum of treated rats after i.v. injection. The concentration of unbound circulating cgtx-544(Sing) was calculated on the basis of a standard curve. Standard error of the mean is depicted in the error bars (n=6).
Rats received i.v. injections of cgtx-544(Sing) (750 μg/kg BW). Blood was withdrawn at time points 0, 1, 10 and 60 minutes. Subsequently, serum was prepared from blood samples. The cgtx-544 content in these samples was analyzed electrophysiologically by measuring the blocking effect on Kv1.3 channels expressed in CHO cells. […] In order to study the amount of unbound cgtx-544(Sing) in the rat, the amount of cgtx-544(Sing) present in the circulating blood at the time points referred above was calculated through a calibration curve. This calibration curve was obtained by adding known quantities of cgtx-544(Sing) to blood serum and subsequent electrophysiological measurements on Kv1.3 channels. The block of Kv1.3 currents by these spiked samples was similar to that obtained with cgtx-544(Sing) in the absence of serum (data not shown).

[3] = biological target: T4, human Kv1.3 (hKv1.3) channel (Homo sapiens, UniProt P22001); assay: Planar patch clamp (Port-A-Patch) of Kv1.3 potassium currents in Sf 21 cells (Example 1); assay type: cell-based
T4 construct: expressed in transfected cells; host or cells: Sf21 (Spodoptera frugiperda) insect cells, baculovirus infection
Procedure: Potassium currents were measured by use of Spodoptera frugiperda (Sf 21) cells, which express the human Kv1.3 (hKv1.3) channel. The channel activity is induced upon membrane depolarization to voltages more positive than −40 mV. […] In Sf 21 cells hKv1.3 has an average current amplitude between 250 pA-5 nA at +40 mV.
1-3 days after infection potassium currents were recorded with the planar patch clamp technique, using the Port-A-Patch (Nanion Technologies GmbH). Ionic currents were activated by voltage steps to a depolarizing potential of +40 mV for 200 ms.
Sf 21 cells were cultured in Grace's insect cell medium supplemented with 10% FBS (Fetal Bovine Serum), 2 mM Glutamine, 1×Yeastolate (from 50× stock solution) and 0.1% Pluronic® F68 (BASF) to a cell density of 2-3×10^6 cells/ml.
External buffer: 160 mM NaCl • 4.5 mM KCl • 1 mM MgCl2 • 2 mM CaCl2 • 5 mM D-Glucose monohydrate • 10 mM HEPES/NaoH pH7.4
Internal buffer: 75 mM KCl • 10 mM NaCl • 70 mM K-Fluoride • 2 mM MgCl2 • 10 mM EGTA • 10 mM HEPES/KOH pH 7.2
as §2
HsTx 1 binding was tested at various concentrations of e.g. 100 pM, 1 nM, 10 nM, 50 nM, 100 nM, 500 nM, and 1 μM—depending on the tested channel. […]

T3 sequence (P22001 whole entry): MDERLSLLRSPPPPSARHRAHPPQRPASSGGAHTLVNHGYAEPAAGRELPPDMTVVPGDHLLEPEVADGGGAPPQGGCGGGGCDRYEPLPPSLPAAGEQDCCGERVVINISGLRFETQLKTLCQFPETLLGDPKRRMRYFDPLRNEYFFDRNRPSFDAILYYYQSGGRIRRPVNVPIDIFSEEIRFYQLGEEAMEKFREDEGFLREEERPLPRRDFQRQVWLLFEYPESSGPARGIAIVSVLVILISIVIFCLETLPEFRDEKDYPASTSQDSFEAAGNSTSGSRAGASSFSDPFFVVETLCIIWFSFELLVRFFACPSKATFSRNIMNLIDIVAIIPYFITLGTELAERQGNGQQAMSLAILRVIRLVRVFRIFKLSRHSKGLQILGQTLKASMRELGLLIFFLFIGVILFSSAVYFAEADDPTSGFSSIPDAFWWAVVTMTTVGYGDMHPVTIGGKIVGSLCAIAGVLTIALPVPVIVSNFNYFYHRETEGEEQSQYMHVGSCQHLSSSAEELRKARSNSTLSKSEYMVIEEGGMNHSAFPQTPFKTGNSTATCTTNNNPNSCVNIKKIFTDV
Chain of Kv1.3 (P22001 whole entry): as above
T4 sequence (P22001 whole entry): as above
T1 sequence (Q09470 whole entry): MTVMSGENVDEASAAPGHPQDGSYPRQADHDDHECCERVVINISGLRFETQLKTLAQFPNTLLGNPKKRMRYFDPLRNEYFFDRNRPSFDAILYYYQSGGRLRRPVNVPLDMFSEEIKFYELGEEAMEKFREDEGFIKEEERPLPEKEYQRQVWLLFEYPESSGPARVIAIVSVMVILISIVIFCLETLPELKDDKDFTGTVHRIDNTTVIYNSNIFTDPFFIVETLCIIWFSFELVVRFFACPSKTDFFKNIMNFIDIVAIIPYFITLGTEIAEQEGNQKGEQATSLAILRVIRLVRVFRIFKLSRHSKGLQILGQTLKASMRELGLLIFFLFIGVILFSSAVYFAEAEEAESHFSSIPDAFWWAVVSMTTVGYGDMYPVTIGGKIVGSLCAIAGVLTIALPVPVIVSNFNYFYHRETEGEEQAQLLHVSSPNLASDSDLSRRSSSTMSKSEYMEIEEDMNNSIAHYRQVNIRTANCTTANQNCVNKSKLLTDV
T2 sequence (P22460 whole entry): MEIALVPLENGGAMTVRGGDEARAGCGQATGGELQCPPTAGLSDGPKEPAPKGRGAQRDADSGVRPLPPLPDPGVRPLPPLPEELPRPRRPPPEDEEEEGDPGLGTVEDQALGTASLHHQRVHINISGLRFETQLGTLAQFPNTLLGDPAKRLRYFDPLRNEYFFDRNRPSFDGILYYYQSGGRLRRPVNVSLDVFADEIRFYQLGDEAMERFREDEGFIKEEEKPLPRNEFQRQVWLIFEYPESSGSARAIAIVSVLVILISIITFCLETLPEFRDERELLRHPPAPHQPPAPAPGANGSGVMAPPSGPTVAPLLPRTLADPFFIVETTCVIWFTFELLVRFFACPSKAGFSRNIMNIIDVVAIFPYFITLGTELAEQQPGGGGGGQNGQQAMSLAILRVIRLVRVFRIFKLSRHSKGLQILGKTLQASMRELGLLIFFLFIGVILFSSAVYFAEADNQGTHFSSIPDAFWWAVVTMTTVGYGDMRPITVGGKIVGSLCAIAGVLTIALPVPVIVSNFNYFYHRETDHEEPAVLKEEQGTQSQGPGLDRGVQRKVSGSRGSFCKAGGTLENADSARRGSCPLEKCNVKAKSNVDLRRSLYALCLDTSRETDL

## CC[C@H](C)[C@H](NC(=O)[C@@H](N)[C@@H](C)O)C(=O)N[C@H](C(=O)N[C@@H](CC(N)=O)C(=O)N[C@H](C(=O)N[C@@H](CCCCN)C(=O)N[C@H]1CSSC[C@@H]2NC(=O)[C@H](CCCCN)NC(=O)CNC(=O)[C@H](Cc3ccc(O)cc3)NC(=O)[C@@H]3CCCN3C(=O)[C@@H]3CSSC[C@@H](C(=O)O)NC(=O)[C@H](CCCNC(=N)N)NC(=O)[C@H](CC(N)=O)NC(=O)[C@@H]4CSSC[C@H](NC(=O)[C@@H]5CCCN5C(=O)[C@@H]5CCCN5C(=O)[C@H](CC(C)C)NC(=O)[C@H](CSSC[C@H](NC(=O)[C@H](CCCCN)NC(=O)[C@H](CCCNC(=N)N)NC(=O)[C@H](CC(N)=O)NC(=O)[C@H](CCSC)NC2=O)C(=O)N[C@@H](CCCCN)C(=O)N4)NC(=O)[C@H](CCC(N)=O)NC(=O)[C@H](CCCCN)NC(=O)[C@@H]2CCCN2C(=O)[C@H](CO)NC(=O)[C@H]([C@@H](C)O)NC1=O)C(=O)N[C@@H](CCCCN)C(=O)N[C@@H](C)C(=O)N[C@@H](CCC(N)=O)C(=O)N[C@@H]([C@@H](C)O)C(=O)NCC(=O)N3)C(C)C)[C@@H](C)CC [Compound 7]
Kv1.1
  block of Kv1.1: about 22%
Kv1.3; long incubation times, i.e. 15 min
  block of Kv1.3 currents: 60%
Kv1.3; short incubation times
  block of Kv1.3 currents: 20%
Kv1.5
  binding to Kv1.5: no binding
Antibody formation; after 10 days under peptide therapy
  reactivity of immunized animals on cgtx-544(Mix) (anti-peptide antibodies): no reactivity
Antibody formation; seven days after arthritis induction
  suppression of B-lymphocytes and antibody formation (mBSA specific antibodies): does not seem to suppress B-lymphocytes and antibody formation
[1]; 24 h, 37° C. and RT
  significant change in activity: could not be detected
[1]; 48 h at RT
  activity after incubation in plasma: remained unchanged
[1]; 14 days at 37° C.
  activity after incubation in plasma: no activity was detected
[1]; 14 days at RT
  activity after incubation in plasma: unchanged activity
[1]; read-out: IC50 on Kv1.3 after incubation in plasma, 48 h at 37° C.
  IC50: 37.3 nM
[1]; read-out: IC50 on Kv1.3 in plasma, time point 0 h
  IC50: 20.9 nM
[2]; 1 mg/kg 1× daily i.v. from day −3
  relative difference of knee swelling (normalized): 0.18±0.05
[2]; 1 mg/kg 1× daily i.v., 24 h after arthritis induction
  reduction of knee swelling relative to the vehicle control group: 60%
[2]; 1 mg/kg BW i.v. 1×d1 and 1×d4, listed as cgtx-544
  effect on knee swelling after second single injection: reduced again to a significant value; also recorded: statistically significant reduction in knee swelling
[2]; listed as cgtx-544
  effect on knee swelling, curative treatment: statistically significant reduction in knee swelling
[2]; listed as cgtx-544(Mix)
  effect on knee swelling, curative treatment: clear reducing, and statistically significant effect; also recorded: significant reduction in knee joint swelling
[2]; 1 mg/kg BW i.v. from day −3
  knee joint swelling versus untreated (excipient) controls: clear reduction of the knee joint swelling
[2]; 1 mg/kg i.v. daily, start day 0 or day 1
  knee diameters after seven days of treatment, curative: nearly comparable to the non-induced, intra-individual control knee
[2]; 1 mg/kg i.v. daily, therapy started on day 0 immediately after arthritis induction
  maximal reduction of knee swelling, curative treatment: 40%
[2]; 1 mg/kg i.v. daily, therapy started on day 1
  maximal reduction of knee swelling, curative treatment: 58%
[2]; 0.1, 1 and 5 mg/kg BW i.v. daily, day −3 to day 6, vs vehicle, listed as cgtx-544
  effect on knee swelling, preventive treatment: clear reducing, dose dependent and statistically significant effect; also recorded: statistically significant reduction in knee swelling
[2]; daily i.v. from day −3
  knee diameters after seven days of treatment, preventive: nearly comparable to the non-induced, intra-individual control knee
  maximal reduction of knee swelling, preventive treatment: 70%
[2]; single i.v. injection 1 mg/kg BW on day 1 (1×d1), 24 h after application, listed as cgtx-544, 1 mg/kg
  effect on knee swelling after single injection: clear and statistically significant reduction of knee swelling; also recorded: statistically significant reduction in knee swelling; also recorded: strong and sustained effect
In vivo
  in vivo half-life: approximately 26 min
[3]
  selectivity for Kv1.3 vs. Kv1.1 compared to HsTx 1: higher selectivity
[3]; read-out: IC50 on Kv1.3 before the start of the plasma stability experiment, incompletely folded peptide, n=5 cells, Sf21
  IC50: 46.1 nM
